According to patent publication US20070248727A1, “Method for Removing Hydrohydroquinone” (KAO CORPORATION, priority 2004, published 2007):

Tested on: rats
Test: Urinary hydrogen peroxide level after giving coffee to rats
Assay type: in vivo
Details: rats given coffee
Text: It is therefore desired to remove hydroxyhydroquinone from coffee.

generation of hydrogen peroxide in the bodies: caused by hydroxyhydroquinone
SMILES: Oc1ccc(O)c(O)c1 [hydroxyhydroquinone]
